Laboratory results as given in patent US8426406B2, “Glucocorticoid receptor agonist comprising 2,2,4-trimethyl-6-phenyl-1,2-dihydroquinoline derivatives having substituted oxy group” (Santen Pharmaceutical Co., Ltd., priority 2008, dated 2013).

What was measured:
[1] = test system: IL-6 production induced by lipopolysaccharide (LPS) in human corneal epithelial cells; assay: Evaluation test for GR agonist activity: inhibition of LPS-induced IL-6 production in human corneal epithelial cells (HCE-T); assay type: cell-based; settings: Corneal epithelial cell, 10 μL of 100 μM test compound solution per well, 4 hours incubation, efficacy relative to DEX
How it was run: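 SV40-immortalized HCE-T cells were treated with test compound (100 μM solution, stock before dilution into well) plus LPS (1 μg/mL solution, likewise pre-dilution) for 4 hours in 10% FBS-DMEM/F12. IL-6 in supernatants was measured by HTRF. Inhibition was calculated relative to LPS-plus-DMSO and no-LPS controls, and efficacy was expressed as % of DEX inhibition.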

[2] = test system: choroidal neovascularization (CNV) model in rats; assay: Evaluation test for inhibitory effect of choroidal neovascularization (laser induced CNV model in rats); assay type: in vivo; settings: Brown Norway rats, 1% (w/v) suspension eye drops four times a day or 20 mg/mL subconjunctival injection (route not given), vs vehicle, mean of 7-8 eyes in 4 rats
Procedure: The choroidal neovascularization (CNV) model in rats is known as one of the popular methods for evaluating the CNV inhibitory effect of drugs. This method is reported in Graefe's Arch. Cli. Exp. Ophthalmol., 235, 313-319 (1997). According to this method, the CNV examinations were performed to evaluate the CNV inhibitory effect of test compounds by comparing the incidence rates of CNV in vehicle group (control group) with test compound-treated groups.
For eye drop administration, a 1% (w/v) test compound suspension was prepared by adding 0.5% polysorbate 80/saline to the test compound. For subconjunctival injection, a 20 mg/mL test compound suspension was prepared by adding 0.5% hydrogenated castor oil/saline to the test compound.
1) Brown Norway male rats (7-8 weeks, 140-240 g) were anesthetized with intramuscular injection (1 mL/kg) of the mixed solution (5% ketamine HCl: 2% xylazine HCl=7:1).
2) After mydriasis using tropicamide phenylephrine hydrochloride eye drops (trade name Mydrin P), laser photocoagulation of bruch's membrane in rats was performed with krypton laser photocoagulation machine. Laser irradiation was performed at 8-9 points per eye avoiding thick retinal blood vessels in ocular fundus and focusing on the depth of retina. The conditions were 100 μm spot size, 100 mW power, 0.1 second duration.
3) After laser photocoagulation, photographs of ocular fundus were taken and the laser photocoagulation (laser irradiation) points were confirmed.
1) In case of eye drops administration, a test compound suspension was administrated four times a day from laser irradiation day (the 1st day) to the 8th day. In case of subconjunctival injection, a 50 μL test compound suspension was injected into conjunctivae just after laser irradiation.
2) In vehicle group (control group), 0.5% polysorbate 80/saline or 0.5% hydrogenated castor oil/saline was used instead of a test compound suspension. And the test was performed according to the method 1).
1) 7 days after laser irradiation, 0.1 mL of 10% fluorescein was injected into rat tail vein and fluorescein angiography was performed.
2) When the fluorescent leakage was not detected in the fluorescent angiography, the spot was judged to be a negative spot. When the fluorescent leakage was detected, the spot was judged to be a positive spot. When the fluorescent leakage was detected as a little leakage, two spots were counted as one positive spot.
3) The neovascular incidence rate was calculated according to the equation 1. According to the equation 2, the ratio of neovascular incidence rate in test compound group to vehicle group was calculated. Neovascular incidence rate(%)=(Positive spots/all spots)×100 (Equation 1) Angiogenic inhibition ratio in test compound group(%)=(1−Ax/Ao)×100 (Equation 2)
Ao: Neovascular incidence rate in vehicle group (control group)
Ax: Neovascular incidence rate in test compound group

Which Emax [1] does the source give for COc1cc(OC(=O)c2ccsc2)ccc1-c1ccc2c(c1COc1cc(F)ccc1C)C(C)=CC(C)(C)N2 [Compound 1-12, 5-(5-Fluoro-2-methylphenoxymethyl)-6-[2-methoxy-4-(thiophen-3-ylcarbonyloxy)phenyl]-2,2,4-trimethyl-1,2-dihydroquinoline] here?
The Emax was 85%.

And the “Angiogenic inhibition ratio (%)” value [2]?
Its value is 37%.

For COc1cc(OC(=O)c2ccco2)ccc1-c1ccc2c(c1COc1cc(F)ccc1C)C(C)=CC(C)(C)N2 [Compound 1-13, 5-(5-Fluoro-2-methylphenoxymethyl)-6-[4-(furan-2-ylcarbonyloxy)-2-methoxyphenyl]-2,2,4-trimethyl-1,2-dihydroquinoline], which Emax [1] is on record?
The Emax was 94%.

And the “Angiogenic inhibition ratio (%)” value [2]?
Its value is 38%.

For COc1cc(OC(=O)c2cccnc2)ccc1-c1ccc2c(c1COc1cc([N+](=O)[O-])ccc1C)C(C)=CC(C)(C)N2 [Compound 1-72, 6-[2-Methoxy-4-(pyridin-3-ylcarbonyloxy)phenyl]-5-(2-methyl-5-nitrophenoxymethyl)-2,2,4-trimethyl-1,2-dihydroquinoline], which Emax [1] is on record?
Its Emax is 82%.

What about the “Angiogenic inhibition ratio (%)” value [2] of the same compound?
Its value is 28%.

Which Emax [1] does the source give for CCCS(=O)(=O)Oc1ccc(-c2ccc3c(c2CNc2ccccc2OC)C(C)=CC(C)(C)N3)c(OC)c1 [Compound 4-18, 5-(2-Methoxyphenylaminomethyl)-6-(2-methoxy-4-propylsulfonyloxyphenyl)-2,2,4-trimethyl-1,2-dihydroquinoline] here?
The Emax was 89%.

And the “Angiogenic inhibition ratio (%)” value [2]?
Its value is 35%.
